We go through 27 molecules from ChEMBL document CHEMBL4196036, “Benzomorphan scaffold for opioid analgesics and pharmacological tools development: A comprehensive review” (Eur J Med Chem, 2018).

For test [1], the target named is T1, Kappa-type opioid receptor (Homo sapiens, UniProt P41145). Description: Binding affinity to KOR (unknown origin).
For test [2], the species on record is Homo sapiens. Description: Selectivity ratio of Ki for MOR (unknown origin) to Ki for KOR (unknown origin).
The species entered for test [3] is Homo sapiens. Nature of the test: Selectivity ratio of Ki for DOR (unknown origin) to Ki for KOR (unknown origin).
The subject of test [4] is Mus musculus. Nature of the test: Antinociceptive activity in sc dosed mouse by abdominal constriction assay. The format is functional.
Test [5] concerns the target T2, Mu-type opioid receptor (Cavia porcellus, UniProt P97266). Nature of the test: Displacement of [3H]DAMGO from MOR in guinea pig brain membranes after 60 mins by scintillation counting method. The test is classed as cell membranes, Membrane. For orientation: Displacement assays read how much labelled ligand stays bound in the presence of the test substance.
Test [6] concerns the target T3, G_PROTEIN_RECEP_F1_2 domain-containing protein (Cavia porcellus, UniProt A0A286XTF2). Nature of the test: Displacement of [3H]Naltrindole from DOR in guinea pig brain membranes after 3 hrs by scintillation counting method. The test is classed as cell membranes, Membrane.
Test [7] deals with T4, Kappa-type opioid receptor (Cavia porcellus, UniProt P41144). Nature of the test: Displacement of [3H]U69,593 from KOR in guinea pig brain membranes after 60 mins by scintillation counting method. The format is cell membranes, Membrane.
T4 sequence (P41144 whole entry): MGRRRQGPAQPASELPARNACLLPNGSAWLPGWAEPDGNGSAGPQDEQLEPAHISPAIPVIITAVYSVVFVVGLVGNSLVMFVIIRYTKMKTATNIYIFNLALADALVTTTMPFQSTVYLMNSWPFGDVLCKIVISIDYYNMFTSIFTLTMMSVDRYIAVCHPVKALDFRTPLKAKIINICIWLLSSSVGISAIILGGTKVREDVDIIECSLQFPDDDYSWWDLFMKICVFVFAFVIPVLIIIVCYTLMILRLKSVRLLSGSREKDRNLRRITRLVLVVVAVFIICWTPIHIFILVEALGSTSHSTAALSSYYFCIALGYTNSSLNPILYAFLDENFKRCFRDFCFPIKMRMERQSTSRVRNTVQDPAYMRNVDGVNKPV
The target of test [8] is T5, Delta-type opioid receptor (Homo sapiens, UniProt P41143). Nature of the test: Binding affinity to DOR (unknown origin).
T5 sequence (P41143 whole entry): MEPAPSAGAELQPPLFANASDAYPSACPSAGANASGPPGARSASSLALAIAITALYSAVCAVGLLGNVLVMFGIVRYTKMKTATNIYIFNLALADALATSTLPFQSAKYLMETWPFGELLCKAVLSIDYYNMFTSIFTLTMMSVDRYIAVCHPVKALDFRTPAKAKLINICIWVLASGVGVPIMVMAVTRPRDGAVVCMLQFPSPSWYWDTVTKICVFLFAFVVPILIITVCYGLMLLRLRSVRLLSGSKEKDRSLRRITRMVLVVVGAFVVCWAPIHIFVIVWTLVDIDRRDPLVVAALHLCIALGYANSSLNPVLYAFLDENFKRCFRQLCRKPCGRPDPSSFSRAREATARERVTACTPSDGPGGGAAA
Test [9] has as its target T6, Mu-type opioid receptor (Homo sapiens, UniProt P35372). Description: Binding affinity to MOR (unknown origin).
Test [10] deals with Mu-type opioid receptor (Macaca mulatta, UniProt Q9MYW9). Nature of the test: Displacement of [3H]DAMGO from MOR in monkey brain cortex membranes. The test is classed as cell membranes.
Sequence of Mu-type opioid receptor (Macaca mulatta, UniProt Q9MYW9) (Q9MYW9 whole entry): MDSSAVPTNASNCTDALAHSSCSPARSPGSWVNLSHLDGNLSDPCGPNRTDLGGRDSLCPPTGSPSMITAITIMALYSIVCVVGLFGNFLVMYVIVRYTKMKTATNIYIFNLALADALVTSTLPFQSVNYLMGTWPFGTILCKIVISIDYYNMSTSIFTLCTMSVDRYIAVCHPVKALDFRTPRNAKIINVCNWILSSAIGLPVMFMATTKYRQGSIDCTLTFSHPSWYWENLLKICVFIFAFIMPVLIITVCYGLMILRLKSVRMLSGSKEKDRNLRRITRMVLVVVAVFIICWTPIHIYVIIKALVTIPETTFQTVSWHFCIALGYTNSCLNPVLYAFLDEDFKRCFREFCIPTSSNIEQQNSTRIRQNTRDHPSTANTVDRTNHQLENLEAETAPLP
Test [11] addresses G_PROTEIN_RECEP_F1_2 domain-containing protein (Macaca mulatta, UniProt F7HEV7). Description: Displacement of [3H]naltrindole from DOR in monkey brain cortex membranes. The test is classed as cell membranes.
The target of test [12] is Kappa-type opioid receptor (Macaca mulatta, UniProt H9FL65). Nature of the test: Displacement of [3H]U69,593 from KOR in monkey brain cortex membranes. The test is classed as cell membranes.
Sequence of Kappa-type opioid receptor (Macaca mulatta, UniProt H9FL65) (H9FL65 whole entry): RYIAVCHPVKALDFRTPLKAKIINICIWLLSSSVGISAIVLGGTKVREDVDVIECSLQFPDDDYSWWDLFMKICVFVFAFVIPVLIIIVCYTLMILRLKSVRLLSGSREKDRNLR
The species named for test [13] is Mus musculus. Description: Antinociceptive activity in mouse by paraphenylquinone assay. The format is functional.
The target in test [14] is T6, Mu-type opioid receptor. Description: Displacement of [3H]-diprenorphine from MOR (unknown origin) after 1 to 2 hrs by scintillation counting method.
Test [15] concerns the target T1, Kappa-type opioid receptor. Nature of the test: Agonist activity at human KOR expressed in HEK293 cell membranes assessed as stimulation of [35S]GTPgammaS binding after 30 mins by scintillation counting method relative to control. The test is classed as functional. For orientation: GTPγS resists hydrolysis and so accumulates on activated G proteins.
The target of test [16] is T1, Kappa-type opioid receptor. Nature of the test: Displacement of [3H]U69,593 from human KOR expressed in HEK293 cell membranes after 1 hr by scintillation counting method.
Test [17] concerns the target T1, Kappa-type opioid receptor. Description: Agonist activity at human KOR expressed in HEK293 cell membranes assessed as stimulation of [35S]GTPgammaS binding after 30 mins by scintillation counting method. The format is functional.
Test [18] deals with Mus musculus. Nature of the test: Antinociceptive activity in sc dosed ICR mouse after 20 mins by tail flick test. The format is functional. Background: Thermal pain tests record how soon the animal reacts.
Test [19] relates to Mus musculus. Nature of the test: Analgesic activity in sc dosed ICR mouse after 30 mins by hot plate test. The test is classed as functional. Conditions: 0.5 h.
Test [20] has as its target T2, Mu-type opioid receptor. Description: Displacement of [3H]DAMGO from MOR in guinea pig brain membranes. The format is cell membranes, Membrane.
The test system of test [21] is Mus musculus. Nature of the test: Antinociceptive activity in sc dosed mouse assessed as inhibition of PPQ-induced stretching response pretreated for 10 mins followed by PPQ treatment measured for 1 min at 10 to 15 mins post PPQ treatment. The test is classed as functional.
The target of test [22] is T5, Delta-type opioid receptor. Description: Displacement of [3H]naltrindole from DOR (unknown origin) expressed in CHO cell membranes.
The target in test [23] is T1, Kappa-type opioid receptor. Nature of the test: Displacement of [3H]U69,593 from KOR (unknown origin) expressed in CHO cell membranes.
In test [24] the target is T6, Mu-type opioid receptor. Nature of the test: Displacement of [3H]DAMGO from MOR (unknown origin) expressed in CHO cell membranes.
The target of test [25] is T4, Kappa-type opioid receptor. Nature of the test: Displacement of [3H]U69,593 from KOR in guinea pig brain membranes. The test is classed as cell membranes, Membrane.
Test [26] addresses T3, G_PROTEIN_RECEP_F1_2 domain-containing protein. Nature of the test: Displacement of [3H]Naltrindole from DOR in guinea pig brain membranes. The format is cell membranes, Membrane.

pEC50, pKi: −log10 of the molar value.

T3 sequence (A0A286XTF2 whole entry): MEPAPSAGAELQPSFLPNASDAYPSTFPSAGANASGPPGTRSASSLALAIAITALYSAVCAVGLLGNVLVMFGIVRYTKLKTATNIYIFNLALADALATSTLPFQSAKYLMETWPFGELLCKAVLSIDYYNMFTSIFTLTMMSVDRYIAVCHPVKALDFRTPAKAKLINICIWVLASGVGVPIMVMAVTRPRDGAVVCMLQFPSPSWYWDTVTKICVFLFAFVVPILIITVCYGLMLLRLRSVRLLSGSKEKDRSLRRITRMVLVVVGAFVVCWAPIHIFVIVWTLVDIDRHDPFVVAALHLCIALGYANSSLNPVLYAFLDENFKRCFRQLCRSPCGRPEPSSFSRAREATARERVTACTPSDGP
Sequence of G_PROTEIN_RECEP_F1_2 domain-containing protein (Macaca mulatta, UniProt F7HEV7) (F7HEV7 whole entry): as the sequence (P41143 whole entry) above, with E10A, C27F, S29N, E112K, V179I counted along it
T2 sequence (P97266 whole entry): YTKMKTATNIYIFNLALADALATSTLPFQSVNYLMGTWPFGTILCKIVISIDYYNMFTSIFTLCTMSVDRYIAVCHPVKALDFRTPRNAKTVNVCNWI
T6 sequence (P35372 whole entry): as the sequence (Q9MYW9 whole entry) above, with V6A, H19Y, R26P, V119A, S154F, S227T, I293V, D344N counted along it
T1 sequence (P41145 whole entry): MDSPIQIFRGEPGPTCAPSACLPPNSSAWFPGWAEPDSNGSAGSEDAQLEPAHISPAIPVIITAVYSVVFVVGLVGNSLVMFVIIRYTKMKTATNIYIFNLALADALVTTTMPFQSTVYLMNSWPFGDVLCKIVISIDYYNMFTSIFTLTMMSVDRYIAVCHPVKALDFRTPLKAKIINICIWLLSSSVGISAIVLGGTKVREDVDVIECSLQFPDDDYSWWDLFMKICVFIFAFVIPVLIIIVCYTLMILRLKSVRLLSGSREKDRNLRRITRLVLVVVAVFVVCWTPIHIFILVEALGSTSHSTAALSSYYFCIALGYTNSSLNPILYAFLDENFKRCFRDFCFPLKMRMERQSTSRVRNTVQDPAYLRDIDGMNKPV

The term pKi denotes −log10 of the Ki, conventionally taken in molar units. Regarding `C[C@H]1[C@H]2Cc3ccc(O)cc3[C@@]1(C)CCN2C[C@@H]1C[C@@]1(C(=O)NCc1ccccc1)c1ccccc1`, the pKi in [1] was 7.46.

What is called ED50 is the dose at which the effect has come halfway, by size or by number of responders. `CCCCC(=N)NCCCCCCNC(=O)[C@H](CC(C)C)NC(=O)CNC(=O)[C@@]1(c2ccccc2)C[C@H]1CN1CC[C@]2(C)c3cc(O)ccc3C[C@@H]1[C@@H]2C` showed a pKi in test [1] of 8.28. Besides, the Ratio Ki in test [2] came to 408; in [3], 424. Besides, in test [4], the 50% effect level (ED50) was put at a dose of 1.1 mg/kg.

As to `COc1ccc(Nc2ccc3c(c2)C2(C)CCN(CC4CC4)C(C3)C2C)cc1` (racemic), the pKi is 9.33 in test [5], 8.08 in test [6] and 9.54 in test [7].

In the case of `C[C@H]1[C@H]2C(=O)c3ccc(O)cc3[C@@]1(C)CCN2CC1CCCO1` (some centres undefined), the pKi was 6.14 in test [1], under 5.00 in test [8] and 5.54 in [9].

For `C=CCN1CC[C@]2(C)c3cc(O)ccc3C[C@@H]1[C@@H]2C`, the values for the pKi in [10], in [11] and in test [12] were 9.05, 8.26 and 9.52, respectively. The molecule also showed an ED50 in test [13] of 0.1 mg/kg.

Usually Emax stands for the maximal effect, on the per cent scale that the assay sets. What is called pEC50 is the negative decadic logarithm of the EC50, by convention in mol/L. `C=CC[N+]1(C)CC[C@]2(C)c3cc(O)ccc3C[C@@H]1[C@@H]2C` (some centres undefined): the results for the pKi in test [14] and in test [16] were 7.25 and 7.99, respectively. Further, the Emax in test [15] came out at 27.3%. The pEC50 in test [17] was 6.57.

For `C[C@H]1[C@H]2Cc3ccc(O)cc3[C@@]1(C)CCN2CCC#N`, the pKi in test [10] was 8.01; in test [11], 8.38; in test [12], 9.40. For the same molecule, the results for the ED50 in test [18], in [13] and in [19] were 0.3 mg/kg, 0.05 mg/kg and 0.1 mg/kg, respectively.

On to `CC1C2Cc3ccc(O)cc3C1(C)CCN2CC1CC1` (racemic), for which the pKi in [6] was 8.96; in test [7], 9.74.

In test [20], `CCC12CCN(CC3CC3)C(C(=O)c3ccc(NC=O)cc31)C2C` (racemic) gave a pKi of 8.21.

`C[C@H]1[C@H]2Cc3ccc(N)cc3[C@@]1(C)CCN2CC1CC1` gave a pKi in test [6] of 7.92.

On to `CCC12CCN(CC3CC3)C(C(=O)c3ccc(O)cc31)C2C` (racemic), for which the pKi in test [8] is 8.47; in [6], 8.47; in test [9], 9.11.

In the case of `CC1C2Cc3ccc(Nc4cccnc4)cc3C1(C)CCN2CC1CC1` (racemic), the pKi was 9.19 in [5], 7.68 in [6] and 9.30 in test [7].

For `C=CCCN1CC[C@]2(C)c3cc(O)ccc3C[C@@H]1[C@@H]2C`, the pKi was 8.68 in test [10], 7.68 in test [11] and 8.89 in test [12]. Moreover, the ED50 came out at 0.05 mg/kg in test [18], 0.8 mg/kg in [13] and 0.3 mg/kg in test [19].

`C[C@H]1[C@H]2Cc3ccc(O)cc3[C@@]1(C)CC[N+]2(C)CC1CC1` (some centres undefined): the pKi is 7.64 in [14] and 8.36 in test [16]. The Emax in test [15] stood at 50%. Further, the negative logarithm of the EC50 (pEC50) in test [17] was 7.11.

As to `C[C@H]1[C@H]2Cc3ccc(O)cc3[C@@]1(C)CCN2CCCCCCO`, in test [21], the ED50 turned out to be 1.9 mg/kg.

For `C[C@H]1[C@H]2Cc3ccc(O)cc3[C@@]1(C)CCN2C[C@@H]1C[C@@]1(CN1CCCCC1)c1ccccc1`, the pKi is 6.75 in test [1] and 7.35 in test [9].

Regarding `CC1C2Cc3ccc(C(N)=O)cc3C1(C)CCN2CC1CC1` (racemic), in test [6], the pKi is 8.08.

As to `CC1C2Cc3ccc(NC=O)cc3C1(C)CCN2CC1CC1` (racemic), the pKi in [20] was 8.72.

Regarding `C[C@H]1[C@H]2Cc3ccc(O)cc3[C@@]1(C)CCN2C[C@@H]1CCCO1`, the pKi in [6] is 8.60.

As to `CCCCC(=N)NCCCCCNC(=O)[C@H](CC(C)C)NC(=O)CNC(=O)[C@@]1(c2ccccc2)C[C@H]1CN1CC[C@]2(C)c3cc(O)ccc3C[C@@H]1[C@@H]2C`, the pKi in [1] was 8.17. The Ratio Ki in [2] was 375; in test [3], 408. The molecule further showed an ED50 in [4] of 0.88 mg/kg.

On to `C[C@H]1[C@H]2Cc3cc4sc(N)nc4cc3[C@@]1(C)CCN2CC1CCC1`, for which the pKi in test [22] was 7.03; in test [23], 9.31; in test [24] it was 8.08.

Regarding `C#CCCN1CC[C@]2(C)c3cc(O)ccc3C[C@@H]1[C@@H]2C`, the figures for the pKi in test [10], in test [11] and in test [12] were 8.34, 8.00 and 8.85, respectively. Also, the ED50 in test [18] is 0.05 mg/kg; in test [13] it was 0.1 mg/kg; in test [19] it was 0.04 mg/kg.

In the case of `C[C@H]1[C@H]2Cc3ccc(O)cc3[C@@]1(C)CCN2CCCC#N`, the pKi in test [10] is 7.64; in test [11] it was 8.24; in test [12], 9.40. In addition, the ED50 in test [18] was 0.4 mg/kg; in test [13] it was 0.01 mg/kg; in test [19], 1 mg/kg.

As for `C[C@H]1[C@H]2Cc3ccc(NC=O)cc3[C@]1(C)CCN2CC1CC1`, the pKi in test [25] was 9.31; in [26], 8.01; in test [20] it was 8.96.

In test [6], `C[C@H]1[C@H]2Cc3ccc(Nc4ccccc4)cc3[C@@]1(C)CCN2CC1CC1` showed a pKi of 8.28.

For the molecule `C[C@H]1[C@H]2Cc3cc4sc(N)nc4cc3[C@@]1(C)CCN2CC1CC1`, the pKi in [22] is 6.03; in [23] it was 8.17; in test [24], 7.32.

For `C[C@H]1[C@H]2Cc3ccc(O)cc3[C@@]1(C)CCN2CC1CC1`, the pKi in test [6] was 9.24; in test [7] it was 10.28.
